# Values quoted from earlier work in patent US7449585B2, “Indazol-3-ones and analogues and derivatives thereof which modulate the function of the vanilloid-1 receptor (VR1)” (Merck Sharp & Dohme Ltd., priority 2003, dated 2008).
# Biological target: VR1 (Rattus norvegicus, UniProt O35433)
# Conditions: literature (Wahl et al., Mol. Pharmacol, 59:9, 2001)
# Chain of VR1 (O35433 whole entry): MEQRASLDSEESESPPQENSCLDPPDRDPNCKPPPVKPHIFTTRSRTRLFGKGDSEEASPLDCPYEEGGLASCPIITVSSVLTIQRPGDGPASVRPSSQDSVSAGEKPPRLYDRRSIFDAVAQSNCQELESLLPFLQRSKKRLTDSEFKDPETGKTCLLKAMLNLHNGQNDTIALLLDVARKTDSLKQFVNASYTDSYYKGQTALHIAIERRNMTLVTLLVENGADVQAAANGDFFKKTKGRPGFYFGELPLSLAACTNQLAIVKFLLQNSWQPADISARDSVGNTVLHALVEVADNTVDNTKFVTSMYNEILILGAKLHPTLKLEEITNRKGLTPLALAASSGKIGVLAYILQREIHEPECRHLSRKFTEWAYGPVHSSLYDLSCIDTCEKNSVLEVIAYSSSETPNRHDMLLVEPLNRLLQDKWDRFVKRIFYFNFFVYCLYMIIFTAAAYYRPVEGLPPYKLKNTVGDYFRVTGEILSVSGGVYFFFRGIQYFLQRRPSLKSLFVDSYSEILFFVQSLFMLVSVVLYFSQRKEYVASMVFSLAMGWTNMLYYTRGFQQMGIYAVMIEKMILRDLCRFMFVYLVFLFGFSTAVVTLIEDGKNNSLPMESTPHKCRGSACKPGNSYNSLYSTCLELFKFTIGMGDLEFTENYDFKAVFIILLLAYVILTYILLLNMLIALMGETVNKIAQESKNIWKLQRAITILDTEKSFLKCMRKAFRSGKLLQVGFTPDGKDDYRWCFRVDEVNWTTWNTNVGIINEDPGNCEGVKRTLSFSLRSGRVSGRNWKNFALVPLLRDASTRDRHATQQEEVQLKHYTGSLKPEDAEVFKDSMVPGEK
compound,measurement,value
C=C(C)[C@]12C[C@@H](C)[C@@]34O[C@](Cc5ccccc5)(O[C@@H]1[C@@H]3C=C(COC(=O)Cc1cc(I)c(O)c(OC)c1)C[C@]1(O)C(=O)C(C)=C[C@@H]41)O2 [Iodo-resiniferatoxin],VR1 antagonist potency (in words),nanomolar antagonist
